According to patent US20260274836A1, “NOVEL HEPATOSELECTIVE POLYADENYLATING POLYMERASES INHIBITORS AND THEIR METHOD OF USE” (Baruch S. Blumberg Institute, priority 2022, published 2026):

Tests used:
[1] = Pharmacokinetics after oral gavage (PO) administration, plasma; assay type: in vivo, CD1 mice; set-up: AUClast/D: unit not given here; conditions: 8 mg/kg oral; for Concentration (ng/mL), plasma: individual animals
Method: Protocol for pharmacokinetic and tissue distribution studies. The pharmacokinetics of the compounds was studied in CD1 mice after intravenous (IV) and oral gavage (PO) administration. Mouse PK studies was conducted at 3 mg/kg (IV) and 8 mg/kg (PO). Plasma samples obtained from dosed animals, at ten time points, including 5, 15 and 30 minutes and 1, 1.5, 2, 4, 6, 8 and 24 hr post-dose for processing to plasma, were prepared for analysis by means of a single step protein precipitation technique, by adding 200 μL of acetonitrile containing an IS mixture (labetalol, imipramine and diclofenac) to 50 μL aliquots of individual subject samples. Samples were mixed by vortex for homogeneity and then subjected to centrifugation at 4000 rpm for 10 min. The supernatant (200 μL) was collected and injected into the LC-MS/MS for analysis. Pharmacokinetic parameters will be calculated using established non-compartmental methods. The liver distribution of the compounds was studied in the PO group and liver tissues were collected at each time point after PO administration. Accurately weighed whole liver tissues were collected in a 50 mL tube, and 3 volumes per weight of water will be added. Tissue samples were homogenized and 50 μL of the homogenates will be processed along with plasma samples as described above.

OATP1B3 = target: T1, OATP1B3 (Homo sapiens, UniProt Q9NPD5); assay: OATP1B3 transporter substrate uptake in OATP1B3-HEK293 cells; assay type: in vitro ADME
T1 construct: expressed in transfected cells; host or cells: HEK293
T1 sequence (Q9NPD5 1-702): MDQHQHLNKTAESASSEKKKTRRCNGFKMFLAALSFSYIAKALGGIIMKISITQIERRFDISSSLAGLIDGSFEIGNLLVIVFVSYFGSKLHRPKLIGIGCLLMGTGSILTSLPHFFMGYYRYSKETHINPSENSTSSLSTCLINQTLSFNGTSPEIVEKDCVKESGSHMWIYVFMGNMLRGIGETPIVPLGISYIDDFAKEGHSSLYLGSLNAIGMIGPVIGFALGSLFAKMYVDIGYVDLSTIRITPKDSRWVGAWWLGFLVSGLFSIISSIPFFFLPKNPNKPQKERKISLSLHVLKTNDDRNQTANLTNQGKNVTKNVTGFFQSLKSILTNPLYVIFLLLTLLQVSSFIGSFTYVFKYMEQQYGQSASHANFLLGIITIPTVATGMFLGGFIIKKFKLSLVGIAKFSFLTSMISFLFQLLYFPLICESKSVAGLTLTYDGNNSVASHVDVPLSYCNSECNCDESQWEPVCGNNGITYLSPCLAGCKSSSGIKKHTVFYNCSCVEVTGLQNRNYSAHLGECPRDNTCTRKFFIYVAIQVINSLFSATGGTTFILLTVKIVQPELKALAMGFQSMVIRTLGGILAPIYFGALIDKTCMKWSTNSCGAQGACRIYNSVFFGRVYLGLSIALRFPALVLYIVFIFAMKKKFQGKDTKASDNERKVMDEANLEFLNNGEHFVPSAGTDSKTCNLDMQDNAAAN
Method: Protocol for identification of compounds that are substrates of transporters OATPIBI and OATPIB3. Transfected HEK293 and vector control HEK293 cells were cultured in 24-well poly-D-lysine or collagen-coated tissue culture plates ([…]) for 2 and 10 minutes respectively in transport buffer (HBSSg, pH 7.4, pre-warmed to 37° C.). At a defined time point, the uptake experiments were stopped by removing dosing solution followed by two washes of ice-cold HBSSg buffer. The cells were lysed for 2 minutes with 75% ACN containing an appropriate internal standard (when available). Lysis buffer were chilled to −20° C., and the plate was kept on ice during lysis. The cell lysate was transferred into a 96-well plate for sample analysis with LC-MS/MS analysis to determine concentration of test compound in cell lysate. The uptake of test compounds was normalized by total cell protein using the BCA Protein Assay Kit following the manufacturer's protocol. The inhibitor Rifamycin SV was used to block OATP1B1 and OATP1B3 transporter activity in order to determine uptake ratios.

COc1cc2c(cc1OCCCCCCC(=O)O)C[C@@H](C(C)C)n1cc(C(=O)O)c(=O)cc1-2 [Example 6, (S)-9-((6-carboxyhexyl)oxy)-6-isopropyl-10-methoxy-2-oxo-6,7-dihydro-2H-pyrido[2,1-a]isoquinoline-3-carboxylic acid]
AUClast/D ([1]; mean): 4.33 | F ([1]; mean): 5.09% | Concentration (ng/mL), plasma ([1]; 8 h): BLOQ | Concentration (ng/mL), plasma ([1]; 24 h): BLOQ | Uptake Ratio (−/+Inhibitor) (OATP1B3; OATP1B3-HEK293 cells, test concentration 1 μM, inhibitor Rifamycin SV): 11.57 | Uptake Ratio (Transporter(−Inhibitor)/Mock(−Inhibitor)) (OATP1B3; OATP1B3-HEK293 vs mock HEK293, test concentration 1 μM): 24.80
